We go through 88 molecules from ChEMBL document CHEMBL3301361, “Experimental in vitro DMPK and physicochemical data on a set of publicly disclosed compounds”.

One may read the thermodynamic solubility as the concentration in solution at equilibrium with solid.

A short description of this data set: physchem. The note with it: pH 7.4 buffer.

Molecules are shown by their SMILES. Converted amounts (≈) assume the structure as drawn.

`Nc1nc2cc(Cl)ccc2n1CCCO` gave a thermodynamic solubility of 1320 µM (≈ 298 µg/mL). `O=C(O)c1cc2ccccc2n1Cc1cccc(Cl)c1` returned a thermodynamic solubility of 1200 µM (≈ 344 µg/mL). The same measure for `O=C(O)c1cc2c(F)cccc2n1Cc1ccc(Cl)c(Cl)c1`: 525 µM (≈ 177 µg/mL). Then `O=C(O)c1c(Cl)c2ccccc2n1Cc1ccc(Cl)c(Cl)c1`, with 759 µM (≈ 269 µg/mL); and `CS(=O)(=O)c1ccc2c(c1)cc(C(=O)O)n2Cc1ccc(Cl)c(Cl)c1`, with 1100 µM (≈ 437 µg/mL); and `O=C(c1ccc(F)cc1)C1CCN(C(=O)N2CCOCC2)CC1`, with 1150 µM (≈ 368 µg/mL). Then `COc1ccc(NC(=O)c2ccccn2)cc1`, with 676 µM (≈ 154 µg/mL). The molecule `O=C(Nc1ccccc1)c1cc(-n2cnnc2)ccc1Cl` had a thermodynamic solubility of 407 µM (≈ 122 µg/mL).

`c1ccc(-c2cn3cccnc3n2)cc1` showed a solubility (thermodynamic) of 676 µM (≈ 132 µg/mL). The same measure for `CNC(=O)[C@@H](NC(=O)[C@H](CC(C)C)[C@H](OCc1cccc2cccnc12)C(=O)NO)C(C)(C)C`: 1000 µM (≈ 473 µg/mL); for `Nc1cccc(S(=O)(=O)Nc2ccccc2)c1`: 1020 µM (≈ 254 µg/mL).

`Nc1nnc(Cc2ccccc2)s1`: the thermodynamic solubility was determined as 1200 µM (≈ 230 µg/mL). For the molecule `CNC(=O)[C@@H](NC(=O)[C@H](CC(C)C)[C@H](Sc1ccc(OC)c(OC)c1)C(=O)NO)C(C)(C)C`, the thermodynamic solubility was 1290 µM (≈ 623 µg/mL).

`Cc1ccc2c(c1)-c1ccccc1S(=O)(=O)N2` gave a solubility (thermodynamic) of 631 µM (≈ 155 µg/mL). In turn, `Nc1n[nH]c(S(=O)(=O)CCCc2ccccc2)n1` displayed a solubility (thermodynamic) of 575 µM (≈ 153 µg/mL). Consider `Clc1ccc(-c2nnc(CNC3CC3)o2)cc1`, for which the solubility (thermodynamic) amounted to 1230 µM (≈ 307 µg/mL). Take `Cn1cc(C(=O)CCCCOc2ccc(C(=O)O)cc2)cc1C=O`: the thermodynamic solubility is 1200 µM (≈ 396 µg/mL). Then `O=S(=O)(Nc1ccncc1)c1ccccc1`, with 794 µM (≈ 186 µg/mL); and `Cn1[nH]c(CSc2ccc(Cl)cc2)cc1=O`, with 468 µM (≈ 119 µg/mL); and `O=c1cc(-c2cccnc2)[nH]c2ccccc12`, with 1350 µM (≈ 300 µg/mL). As to `CNC(=O)Cc1ccc2c(=O)cc(-c3cccnc3)[nH]c2c1`, the thermodynamic solubility was 457 µM (≈ 134 µg/mL).

With `O=C(Nc1ccccc1)Nc1ccncc1`, the solubility (thermodynamic) was 1350 µM (≈ 288 µg/mL). For `O=C(c1ccccc1)C1CCN(C(=O)c2ccco2)CC1`, the thermodynamic solubility turned out to be 427 µM (≈ 121 µg/mL). Then `Cc1ccnc(NC(=O)CSc2ccccn2)c1`, with 436 µM (≈ 113 µg/mL); and `O=[N+]([O-])c1ccc(CCl)cc1`, with 501 µM (≈ 86 µg/mL). Then `COC[C@H](C)Oc1cc(O[C@@H](C)Cc2ccc(F)cc2)cc(C(=O)Nc2ccc(C(=O)O)cn2)c1`, with 1260 µM (≈ 607 µg/mL). The molecule `COC[C@H](C)Oc1cc(O[C@@H](C)Cc2ccccc2OC)cc(C(=O)Nc2ccc(C(=O)O)cn2)c1` had a solubility (thermodynamic) of 589 µM (≈ 291 µg/mL). Molecule `COC[C@H](C)Oc1cc(O[C@@H](C)Cc2cc(F)cc(F)c2)cc(C(=O)Nc2ccc(C(=O)O)cn2)c1` had a thermodynamic solubility of 646 µM (≈ 323 µg/mL). Then `COC[C@H](C)Oc1cc(Oc2cccc(Cl)c2)cc(C(=O)Nc2ccc(C(=O)O)cn2)c1`, with 1170 µM (≈ 537 µg/mL). Then `COC[C@H](C)Oc1cc(Oc2cccc(F)c2)cc(C(=O)Nc2ccc(C(=O)O)cn2)c1`, with 1380 µM (≈ 608 µg/mL); and `COC[C@H](C)Oc1cc(Oc2cccc(N(C)C)c2)cc(C(=O)Nc2ccc(C(=O)O)cn2)c1`, with 1350 µM (≈ 628 µg/mL); and `Cc1noc(C)c1CCC1CCN(S(=O)(=O)CC2(N(O)C=O)CCOC(C)(C)C2)CC1` (stereo not drawn), with 851 µM (≈ 389 µg/mL). On to `Cc1cc(O)nc(SCC(=O)c2ccccc2)n1`, for which the thermodynamic solubility turned out to be 708 µM (≈ 184 µg/mL). With `O=C(Nc1cccc(O)c1)c1ccc(OCCCN2CCCC2)cc1OCc1ccccn1`, the thermodynamic solubility was 513 µM (≈ 230 µg/mL). Molecule `O=C(Nc1ccccc1)c1ccc(OCCCN2CCCC2)cc1OCc1cccnc1` yielded a thermodynamic solubility of 398 µM (≈ 172 µg/mL). Molecule `CNC(=O)CCc1nc(-c2ccc(OC)cc2)no1` yielded a thermodynamic solubility of 912 µM (≈ 238 µg/mL). The molecule `Cc1[nH]c2ccccc2c1CC#N` returned a solubility (thermodynamic) of 1020 µM (≈ 174 µg/mL). Then `CC(C)Oc1cc(OCCc2ccncc2)cc(C(=O)Nc2ccc(C(=O)O)cn2)c1`, with 1070 µM (≈ 452 µg/mL). Then `CC(=O)N1CCC(NC(=O)c2ccc(Oc3ccc(C#C[C@]4(O)CN5CCC4CC5)cc3)cc2)CC1`, with 646 µM (≈ 315 µg/mL); and `CCN(C(=O)Cc1ccc(S(C)(=O)=O)cc1)C1CCN(CCC(c2ccccc2)N2CCN(c3ccccc3)CC2)CC1` (stereo not drawn), with 692 µM (≈ 417 µg/mL); and `CCN(C(=O)Cc1ccc(S(C)(=O)=O)cc1)C1CCN(CC[C@@H](c2ccccc2)N2CCN(S(=O)(=O)CC(F)(F)F)CC2)CC1`, with 490 µM (≈ 330 µg/mL). Then `CCN(C(=O)Cc1ccc(S(C)(=O)=O)cc1)C1CCN(CCC(c2ccccc2)C2CCN(S(=O)(=O)CC)CC2)CC1` (stereo not drawn), with 457 µM (≈ 282 µg/mL); and `CC(c1ccccc1)n1cnc2ccccc2c1=O` (stereo not drawn), with 468 µM (≈ 117 µg/mL); and `CNc1cccc(CCOc2ccc(C[C@H](NC(=O)c3c(Cl)cncc3Cl)C(=O)O)cc2)n1`, with 1350 µM (≈ 660 µg/mL). As for `Cc1ccc(NC(=O)c2ccnc(N3CCOCC3)c2)cc1-n1c(C)nc2ccc(N3CCN(C)CC3)cc2c1=O`, the solubility (thermodynamic) was found to be 851 µM (≈ 471 µg/mL). Consider `CCN1CCC[C@@H](C(=O)N2CCN(C(=O)Nc3ccc(Cl)c(Cl)c3)CC2)C1`, for which the thermodynamic solubility stood at 1050 µM (≈ 433 µg/mL).

In turn, `Cc1sc(N2CCN(C(=O)[C@@H]3CCCC[C@H]3C(=O)NC3(C#N)CC3)CC2)nc1C(F)(F)F` had a solubility (thermodynamic) of 1070 µM (≈ 503 µg/mL).

For `CNC(=O)[C@@H](C)N(C)Cc1cc2c(Nc3cccc(Cl)c3F)ncnc2cc1OC`, the thermodynamic solubility is 646 µM (≈ 279 µg/mL).

The molecule `COc1ccc(Cn2c(CCc3c[nH]c4ccccc34)nnc2[C@@H](Cc2c[nH]c3ccccc23)NC(=O)C2CCNCC2)c(OC)c1` came in with a solubility (thermodynamic) of 550 µM (≈ 347 µg/mL). For the molecule `COc1cc2c(Nc3cc(CC(=O)Nc4cccc(F)c4F)[nH]n3)ncnc2cc1OCCCN1CCC[C@H]1CO`, the thermodynamic solubility was 1000 µM (≈ 568 µg/mL). The same measure for `O=C(O)[C@H](Cc1cccc(F)c1)N1CCC(CN2CCC(Oc3ccc(Cl)c(Cl)c3)CC2)CC1`: 417 µM (≈ 212 µg/mL); for `CS(=O)(=O)c1ccc2c3c([nH]c2c1)CCN(C(=O)[C@@H]1CCCC[C@H]1C(=O)NC1(C#N)CC1)C3`: 912 µM (≈ 427 µg/mL); for `N#CC1(NC(=O)[C@@H]2CCCC[C@H]2C(=O)N2CCc3[nH]c4ncccc4c3C2)CC1`: 1510 µM (≈ 593 µg/mL). Consider `Cc1cccc2c3c([nH]c12)CCN(C(=O)[C@@H]1CCCC[C@H]1C(=O)NC1(C#N)CC1)C3`, for which the thermodynamic solubility amounted to 513 µM (≈ 207 µg/mL). The molecule `N#CC1(NC(=O)[C@@H]2CCCC[C@H]2C(=O)N2CCc3oc4ccccc4c3C2)CC1` registered a thermodynamic solubility of 575 µM (≈ 225 µg/mL). As to `N#CCNC(=O)[C@@H]1CCCC[C@H]1C(=O)N1CCN(c2ccccc2)CC1`, the thermodynamic solubility was found to be 631 µM (≈ 224 µg/mL). `C[C@H](C#N)NC(=O)[C@@H]1CCCC[C@H]1C(=O)N1CCc2[nH]c3ccc(F)cc3c2C1` yielded a thermodynamic solubility of 457 µM (≈ 181 µg/mL). In turn, `N#CC1(NC(=O)[C@@H]2CCCC[C@H]2C(=O)N2CCc3[nH]c4ccccc4c3C2)CC1` came in with a thermodynamic solubility of 912 µM (≈ 356 µg/mL). The same measure for `N#CC1(NC(=O)[C@@H]2CCCC[C@H]2C(=O)N2CCc3[nH]c4c(F)cccc4c3C2)CC1`: 479 µM (≈ 195 µg/mL). As for `N#CC1(NC(=O)[C@@H]2CCCC[C@H]2C(=O)N2CCc3[nH]c4cc(F)ccc4c3C2)CC1`, the thermodynamic solubility amounted to 537 µM (≈ 219 µg/mL).

`COc1ccc2[nH]c3c(c2c1)CN(C(=O)[C@@H]1CCCC[C@H]1C(=O)NC1(C#N)CC1)CC3` displayed a thermodynamic solubility of 813 µM (≈ 342 µg/mL). The molecule `Cc1noc2cc(N3CCN(C(=O)[C@@H]4CCCC[C@H]4C(=O)NC4(C#N)CC4)[C@H](C)C3)ccc12` came in with a solubility (thermodynamic) of 603 µM (≈ 271 µg/mL).

As to `CN1CCC(Oc2cc(OCCF)cc3ncnc(Nc4c(Cl)ccc5c4OCO5)c23)CC1`, the solubility (thermodynamic) came to 759 µM (≈ 360 µg/mL). `CC1(c2c(C(=O)NC3C4CC5CC(C4)CC3C5)cnn2-c2ccc(C(=O)O)cc2)CC1` (stereo not drawn): the thermodynamic solubility worked out at 661 µM (≈ 277 µg/mL). In turn, `CCCSc1c(C(=O)NC2CCCCC2)cnn1C` displayed a solubility (thermodynamic) of 1230 µM (≈ 346 µg/mL). Then `Cc1ccc2nc(C)c(-c3ccnc(N)n3)n2c1`, with 457 µM (≈ 109 µg/mL). Then `Fc1ccc(CN2CCN(C3=Nn4c(nnc4C(F)(F)F)CC3)CC2)cc1`, with 525 µM (≈ 201 µg/mL); and `Nc1ccccc1NC(=O)c1ccc(-c2ncc(CN3CCC3)cc2Cl)cc1`, with 1350 µM (≈ 530 µg/mL).

In the case of `CC(C)N1CCN(Cc2cnc(-c3ccc(C(=O)Nc4ccccc4N)cc3)c(C#N)c2)CC1`, the solubility (thermodynamic) stood at 1350 µM (≈ 613 µg/mL). The same measure for `O=C(NCc1ccc(C(=O)NO)cc1)OCc1cccnc1`: 1380 µM (≈ 416 µg/mL); for `Oc1ccc(-n2ccnc2)cc1`: 1260 µM (≈ 202 µg/mL). For the molecule `COc1cc2c(Nc3ccc(Cl)cc3F)ncnc2cc1OC/C=C/CN1CCCC1`, the solubility (thermodynamic) worked out at 759 µM (≈ 336 µg/mL). Then `O=C(O)COc1ccc(OCCNC[C@H](O)COc2ccccc2)cc1`, with 1020 µM (≈ 370 µg/mL). Consider `O=c1c2ccccc2[nH]n1CCc1ccccc1`, for which the solubility (thermodynamic) worked out at 550 µM (≈ 131 µg/mL). As to `CC(C)(C)c1cc(=O)n(-c2ccccc2)[nH]1`, the solubility (thermodynamic) was 708 µM (≈ 153 µg/mL). For the molecule `Cc1ccc(SCc2cc(=O)n(C)[nH]2)cc1`, the solubility (thermodynamic) came out at 1510 µM (≈ 355 µg/mL). Then `CNC(=O)[C@@H](NC(=O)[C@H](CC(C)C)[C@H](OCc1cc2c(=O)[nH]c(C)nc2cc1Br)C(=O)NO)C(C)(C)C`, with 457 µM (≈ 266 µg/mL).

Regarding `COc1cc2ncnc(Nc3cccc(Cl)c3F)c2cc1CN(C)C1(C(N)=O)CCN(C(C)C)CC1`, the solubility (thermodynamic) turned out to be 550 µM (≈ 283 µg/mL). In turn, `Cc1cc(C)cc(-c2[nH]c3sc(C(C)(C)C(=O)N4C5CCC4CC5)cc3c2CCN2CCN(CC(O)CN3CCNCC3)CC2)c1` (stereo not drawn) gave a solubility (thermodynamic) of 427 µM (≈ 276 µg/mL).

`O=C1NCCc2c1[nH]c1ccccc21` registered a thermodynamic solubility of 1260 µM (≈ 234 µg/mL). `O=C1CSc2ccccc2N1`: the solubility (thermodynamic) stood at 871 µM (≈ 144 µg/mL). Then `CCCNc1nc2ccccc2c(=O)[nH]1`, with 537 µM (≈ 109 µg/mL); and `CC(=O)Nc1nc2c(s1)C(=O)NCCC2`, with 1350 µM (≈ 304 µg/mL); and `CCSc1nc2c(N)ncnc2[nH]1`, with 436 µM (≈ 85.2 µg/mL).

For `COc1cc2ncnc(Nc3ccc(F)c(Cl)c3)c2cc1OCCCN(C)C`, the thermodynamic solubility was found to be 1290 µM (≈ 522 µg/mL). As for `CC(=O)Nc1ccc(Br)cc1`, the solubility (thermodynamic) amounted to 832 µM (≈ 178 µg/mL). The same measure for `CN(C)C(=N)c1ccc(C(=O)N2CCN(S(=O)(=O)c3ccc4cc(Br)ccc4c3)CC2)cc1`: 1320 µM (≈ 698 µg/mL); for `COc1ccc(Br)c(C=O)c1O`: 468 µM (≈ 108 µg/mL).
